Reference: publication PMC8198181, “Evaluation of Substituted N-Phenylpiperazine Analogs as D3 vs. D2 Dopamine Receptor Subtype Selective Ligands” (Molecules, 2021)

Experiments:
[1] = tested on: DBA/2J mice; experiment: DOI-dependent head twitch response inhibition; type: in vivo, mouse; settings: male DBA/2J mice, 10 mg/kg i.p., DOI 5 mg/kg, 30 min
Source text: (§1) First, we have previously published that D3 receptor selective compounds could attenuate a hallucinogen-dependent head twitch response (HTR) in male DBA/2J mice. […] Second, we previously reported that D3 vs. D2 dopamine receptor subtype selective ligands could attenuate L-dopa dependent abnormal involuntary movement (AIM) scores in unilaterally lesioned (hemiparkinsonian) male rats, which is a model for L-dopa-Induced Dyskinesia (LID).
Upon arrival DBA/2J mice (Jackson Labs) were allowed to acclimate for at least one week prior to testing. Mice were housed at ≤4 animals per cage with unlimited access to food and fresh water. The protocol for the HTR assessment has been previously reported. […]
However, a head twitch was defined as a rapid movement of the head, without the involvement of the front paws during grooming. […] At least two observers counted the number of head twitches by visual examination and the number of head twitches was recorded in 5-min cumulative intervals. […]
The effect of Group was assessed using two-way analysis of variance (ANOVA) with Time as the repeated measure. The data was further analyzed at each time point with a one-way ANOVA with Group as the factor followed by planned individual comparisons between different groups using a single degree-of-freedom F test involving the error term from the overall ANOVA when the Time and Group interaction was significant. […]

[2] = tested on: unilateral 6-hydroxydopamine lesioned (hemiparkinsonian) rats; experiment: L-dopa-dependent abnormal involuntary movement (AIM) inhibition in hemiparkinsonian rats; type: in vivo, rat; settings: unilaterally lesioned male rats, 10 mg/kg, L-dopa and benserazide 8 mg/kg each
Method: as §1, with “(LID). […]” for “(LID).”
AIMs ratings were performed as previously described. The severity of the AIMs was quantified using lesioned rats that were observed individually in their home cages at 15 min intervals, starting 15 min after the injection of L-dopa for approximately 2 h. The AIMs were scored in four categories: (1) axial AIMs, including dystonic or choreiform torsion of the trunk and neck towards the side contralateral to the lesion; (2) limb AIMs, including jerky and/or dystonic movements of the forelimb contralateral to the lesion; (3) orolingual AIMs, including twitching of orofacial muscles with empty masticatory movements and protrusion of the tongue towards the side contralateral to the lesion and (4) locomotive AIMs, including increased locomotion with contralateral side bias. […]
The effect of Group was assessed using two-way analysis of variance (ANOVA) with time as the repeated measure. […]

`O=C(NCCCCN1CCN(c2ccccc2F)CC1)c1ccc(-c2ccsc2)cc1` [Compound 6a] was tested, and the “DOI-dependent head twitch response” value [1] was “attenuated the number of head twitches” and the “L-dopa dependent AIM scores” value [2] was “attenuate the AIM scores”.
